Measured values: ChEMBL document CHEMBL3217532, “New analyses of MIC90 data to aid antibacterial drug discovery” (2011)
Converted amounts (≈) assume the structure as drawn. Blank lines part the entries; values can stand above or below the compound they belong to.

Columns and labels:
Format in all cases: functional
[1] = tested on: Pseudomonas aeruginosa; experiment: Antimicrobial activity against Pseudomonas aeruginosa 1951-00
[2] = tested on: Pseudomonas aeruginosa; experiment: Antimicrobial activity against Pseudomonas aeruginosa 1752-00
[3] = tested on: Pseudomonas aeruginosa; experiment: Antimicrobial activity against Pseudomonas aeruginosa 1753-00
[4] = tested on: Pseudomonas aeruginosa; experiment: Antimicrobial activity against Pseudomonas aeruginosa 1957-00
[5] = tested on: Pseudomonas aeruginosa; experiment: Antimicrobial activity against Pseudomonas aeruginosa 1569-05
[6] = tested on: Pseudomonas aeruginosa; experiment: Antimicrobial activity against Pseudomonas aeruginosa 1570-05
[7] = tested on: Pseudomonas aeruginosa; experiment: Antimicrobial activity against Pseudomonas aeruginosa 1613-09
[8] = tested on: Pseudomonas aeruginosa; experiment: Antimicrobial activity against Pseudomonas aeruginosa 1954-00
[9] = tested on: Pseudomonas aeruginosa; experiment: Antimicrobial activity against Pseudomonas aeruginosa PA-4624
[10] = tested on: Pseudomonas aeruginosa; experiment: Antimicrobial activity against Pseudomonas aeruginosa 1565-05
[11] = tested on: Pseudomonas aeruginosa; experiment: Antimicrobial activity against Pseudomonas aeruginosa 1566-05
[12] = tested on: Pseudomonas aeruginosa; experiment: Antimicrobial activity against Pseudomonas aeruginosa 1567-05
[13] = tested on: Pseudomonas aeruginosa; experiment: Antimicrobial activity against Pseudomonas aeruginosa 1568-05
[14] = tested on: Pseudomonas aeruginosa; experiment: Antimicrobial activity against Pseudomonas aeruginosa 1767-00
[15] = tested on: Pseudomonas aeruginosa; experiment: Antimicrobial activity against Pseudomonas aeruginosa 1768-00
[16] = tested on: Pseudomonas aeruginosa; experiment: Antimicrobial activity against Pseudomonas aeruginosa 1956-00
[17] = tested on: Pseudomonas aeruginosa; experiment: Antimicrobial activity against Pseudomonas aeruginosa PA-75
[18] = tested on: Pseudomonas aeruginosa; experiment: Antimicrobial activity against Pseudomonas aeruginosa 1955-00
[19] = tested on: Pseudomonas aeruginosa; experiment: Antimicrobial activity against Pseudomonas aeruginosa 1561-05
[20] = tested on: Pseudomonas aeruginosa; experiment: Antimicrobial activity against Pseudomonas aeruginosa 1563-00
[21] = tested on: Pseudomonas aeruginosa; experiment: Antimicrobial activity against Pseudomonas aeruginosa 1564-05
[22] = tested on: Pseudomonas aeruginosa; experiment: Antimicrobial activity against Pseudomonas aeruginosa 1615-09
[23] = tested on: Pseudomonas aeruginosa; experiment: Antimicrobial activity against Pseudomonas aeruginosa 1761-00
[24] = tested on: Pseudomonas aeruginosa; experiment: Antimicrobial activity against Pseudomonas aeruginosa 1764-00
[25] = tested on: Pseudomonas aeruginosa; experiment: Antimicrobial activity against Pseudomonas aeruginosa 1765-00
[26] = tested on: Pseudomonas aeruginosa; experiment: Antimicrobial activity against Pseudomonas aeruginosa 1766-00
[27] = tested on: Pseudomonas aeruginosa; experiment: Antimicrobial activity against Pseudomonas aeruginosa 1952-00
[28] = tested on: Pseudomonas aeruginosa; experiment: Antimicrobial activity against Pseudomonas aeruginosa 1953-00
[29] = tested on: Pseudomonas aeruginosa; experiment: Antimicrobial activity against Pseudomonas aeruginosa 1562-05
[30] = tested on: Pseudomonas aeruginosa; experiment: Antimicrobial activity against Pseudomonas aeruginosa 1611-09
[31] = tested on: Pseudomonas aeruginosa; experiment: Antimicrobial activity against Pseudomonas aeruginosa 1614-09
[32] = tested on: Pseudomonas aeruginosa; experiment: Antimicrobial activity against Pseudomonas aeruginosa 1619-08
[33] = tested on: Pseudomonas aeruginosa; experiment: Antimicrobial activity against Pseudomonas aeruginosa 1760-00
[34] = tested on: Pseudomonas aeruginosa; experiment: Antimicrobial activity against Pseudomonas aeruginosa PA-1757
[35] = tested on: Pseudomonas aeruginosa; experiment: Antimicrobial activity against Pseudomonas aeruginosa 1527-08
[36] = tested on: Pseudomonas aeruginosa; experiment: Antimicrobial activity against Pseudomonas aeruginosa PA-4991
[37] = tested on: Pseudomonas aeruginosa; experiment: Antimicrobial activity against Pseudomonas aeruginosa PA-4999
[38] = tested on: Pseudomonas aeruginosa; experiment: Antimicrobial activity against Pseudomonas aeruginosa 1612-09
[39] = tested on: Pseudomonas aeruginosa; experiment: Antimicrobial activity against Pseudomonas aeruginosa PA-4995
[40] = tested on: Pseudomonas aeruginosa; experiment: Antimicrobial activity against Pseudomonas aeruginosa 1513-08
[41] = tested on: Pseudomonas aeruginosa; experiment: Antimicrobial activity against Pseudomonas aeruginosa 1515-08
[42] = tested on: Pseudomonas aeruginosa; experiment: Antimicrobial activity against Pseudomonas aeruginosa PA-4990
[43] = tested on: Pseudomonas aeruginosa; experiment: Antimicrobial activity against Pseudomonas aeruginosa PA-4997
[44] = tested on: Pseudomonas aeruginosa; experiment: Antimicrobial activity against Pseudomonas aeruginosa 1523-08
[45] = tested on: Pseudomonas aeruginosa; experiment: Antimicrobial activity against Pseudomonas aeruginosa PA-4993
[46] = tested on: Pseudomonas aeruginosa; experiment: Antimicrobial activity against Pseudomonas aeruginosa 1509-08
[47] = tested on: Pseudomonas aeruginosa; experiment: Antimicrobial activity against Pseudomonas aeruginosa 1510-08
[48] = tested on: Pseudomonas aeruginosa; experiment: Antimicrobial activity against Pseudomonas aeruginosa 1512-08
[49] = tested on: Pseudomonas aeruginosa; experiment: Antimicrobial activity against Pseudomonas aeruginosa 1514-08
[50] = tested on: Pseudomonas aeruginosa; experiment: Antimicrobial activity against Pseudomonas aeruginosa 1521-08
[51] = tested on: Pseudomonas aeruginosa; experiment: Antimicrobial activity against Pseudomonas aeruginosa 1526-08

- MIC90 [1]: 0.25 µg/mL (≈ 0.351 µM)
- MIC90 [2]: 0.25 µg/mL (≈ 0.351 µM)
- MIC90 [3]: 0.25 µg/mL (≈ 0.351 µM)
- MIC90 [4]: 0.125 µg/mL (≈ 0.176 µM)
- MIC90 [5]: 0.25 µg/mL (≈ 0.351 µM)
- MIC90 [6]: 0.25 µg/mL (≈ 0.351 µM)
- MIC90 [7]: 0.5 µg/mL (≈ 0.703 µM)
- MIC90 [8]: 0.06 µg/mL (≈ 0.0843 µM)
- MIC90 [9]: 0.25 µg/mL (≈ 0.351 µM)
- MIC90 [10]: 0.125 µg/mL (≈ 0.176 µM)
- MIC90 [11]: 0.25 µg/mL (≈ 0.351 µM)
- MIC90 [12]: 0.125 µg/mL (≈ 0.176 µM)
- MIC90 [13]: 0.25 µg/mL (≈ 0.351 µM)
- MIC90 [14]: 0.25 µg/mL (≈ 0.351 µM)
- MIC90 [15]: 0.06 µg/mL (≈ 0.0843 µM)
- MIC90 [16]: 0.06 µg/mL (≈ 0.0843 µM)
- MIC90 [17]: 0.25 µg/mL (≈ 0.351 µM)
- MIC90 [18]: 0.125 µg/mL (≈ 0.176 µM)
- MIC90 [19]: 0.5 µg/mL (≈ 0.703 µM)
- MIC90 [20]: 0.125 µg/mL (≈ 0.176 µM)
- MIC90 [21]: 0.125 µg/mL (≈ 0.176 µM)
- MIC90 [22]: 0.25 µg/mL (≈ 0.351 µM)
- MIC90 [23]: 0.5 µg/mL (≈ 0.703 µM)
- MIC90 [24]: 0.25 µg/mL (≈ 0.351 µM)
- MIC90 [25]: 1 µg/mL (≈ 1.41 µM)
- MIC90 [26]: 16 µg/mL (≈ 22.5 µM)
- MIC90 [27]: 0.25 µg/mL (≈ 0.351 µM)
- MIC90 [28]: 0.5 µg/mL (≈ 0.703 µM)
- MIC90 [29]: 0.125 µg/mL (≈ 0.176 µM)
- MIC90 [30]: 0.06 µg/mL (≈ 0.0843 µM)
- MIC90 [31]: 0.25 µg/mL (≈ 0.351 µM)
- MIC90 [32]: 0.06 µg/mL (≈ 0.0843 µM)
- MIC90 [33]: 1 µg/mL (≈ 1.41 µM)
- MIC90 [34]: 4 µg/mL (≈ 5.62 µM)
- MIC90 [35]: 0.25 µg/mL (≈ 0.351 µM)
- MIC90 [36]: 0.25 µg/mL (≈ 0.351 µM)
- MIC90 [37]: 0.25 µg/mL (≈ 0.351 µM)
- MIC90 [38]: 0.25 µg/mL (≈ 0.351 µM)
- MIC90 [39]: 0.06 µg/mL (≈ 0.0843 µM)
- MIC90 [40]: 0.5 µg/mL (≈ 0.703 µM)
- MIC90 [41]: 0.25 µg/mL (≈ 0.351 µM)
- MIC90 [42]: 0.25 µg/mL (≈ 0.351 µM)
- MIC90 [43]: 0.25 µg/mL (≈ 0.351 µM)
- MIC90 [44]: 0.25 µg/mL (≈ 0.351 µM)
- MIC90 [45]: 0.06 µg/mL (≈ 0.0843 µM)
- MIC90 [46]: 1 µg/mL (≈ 1.41 µM)
- MIC90 [47]: 2 µg/mL (≈ 2.81 µM)
- MIC90 [48]: 0.25 µg/mL (≈ 0.351 µM)
- MIC90 [49]: 0.5 µg/mL (≈ 0.703 µM)
- MIC90 [50]: 0.5 µg/mL (≈ 0.703 µM)
- MIC90 [51]: 0.5 µg/mL (≈ 0.703 µM)
Structure (SMILES): C[C@H]1[C@H](NC(=O)/C(=N\OC(C)(C)C(=O)O)c2csc(N)n2)C(=O)N1C(=O)NS(=O)(=O)n1nc(-c2cc(=O)c(O)c[nH]2)n(CC(N)=O)c1=O

- MIC90 [1]: 0.5 µg/mL (≈ 0.748 µM)
- MIC90 [2]: 0.5 µg/mL (≈ 0.748 µM)
- MIC90 [3]: 0.5 µg/mL (≈ 0.748 µM)
- MIC90 [4]: 0.125 µg/mL (≈ 0.187 µM)
- MIC90 [5]: 0.5 µg/mL (≈ 0.748 µM)
- MIC90 [6]: 0.125 µg/mL (≈ 0.187 µM)
- MIC90 [7]: 0.125 µg/mL (≈ 0.187 µM)
- MIC90 [8]: 0.06 µg/mL (≈ 0.0897 µM)
- MIC90 [9]: 1 µg/mL (≈ 1.5 µM)
- MIC90 [10]: 0.25 µg/mL (≈ 0.374 µM)
- MIC90 [11]: 0.25 µg/mL (≈ 0.374 µM)
- MIC90 [12]: 0.25 µg/mL (≈ 0.374 µM)
- MIC90 [13]: 0.5 µg/mL (≈ 0.748 µM)
- MIC90 [14]: 0.25 µg/mL (≈ 0.374 µM)
- MIC90 [15]: 0.125 µg/mL (≈ 0.187 µM)
- MIC90 [16]: 0.125 µg/mL (≈ 0.187 µM)
- MIC90 [17]: 0.5 µg/mL (≈ 0.748 µM)
- MIC90 [18]: 0.25 µg/mL (≈ 0.374 µM)
- MIC90 [19]: 1 µg/mL (≈ 1.5 µM)
- MIC90 [20]: 0.25 µg/mL (≈ 0.374 µM)
- MIC90 [21]: 0.125 µg/mL (≈ 0.187 µM)
- MIC90 [22]: 0.25 µg/mL (≈ 0.374 µM)
- MIC90 [23]: 1 µg/mL (≈ 1.5 µM)
- MIC90 [24]: 0.25 µg/mL (≈ 0.374 µM)
- MIC90 [25]: 1 µg/mL (≈ 1.5 µM)
- MIC90 [26]: 0.5 µg/mL (≈ 0.748 µM)
- MIC90 [27]: 0.25 µg/mL (≈ 0.374 µM)
- MIC90 [28]: 0.25 µg/mL (≈ 0.374 µM)
- MIC90 [29]: 0.25 µg/mL (≈ 0.374 µM)
- MIC90 [30]: 0.125 µg/mL (≈ 0.187 µM)
- MIC90 [31]: 0.25 µg/mL (≈ 0.374 µM)
- MIC90 [32]: 0.03 µg/mL (≈ 0.0449 µM)
- MIC90 [33]: 0.5 µg/mL (≈ 0.748 µM)
- MIC90 [34]: 8 µg/mL (≈ 12 µM)
- MIC90 [35]: 0.5 µg/mL (≈ 0.748 µM)
- MIC90 [36]: 0.5 µg/mL (≈ 0.748 µM)
- MIC90 [37]: 0.5 µg/mL (≈ 0.748 µM)
- MIC90 [38]: 1 µg/mL (≈ 1.5 µM)
- MIC90 [39]: 0.125 µg/mL (≈ 0.187 µM)
- MIC90 [40]: 1 µg/mL (≈ 1.5 µM)
- MIC90 [41]: 0.5 µg/mL (≈ 0.748 µM)
- MIC90 [42]: 0.5 µg/mL (≈ 0.748 µM)
- MIC90 [43]: 0.5 µg/mL (≈ 0.748 µM)
- MIC90 [44]: 0.5 µg/mL (≈ 0.748 µM)
- MIC90 [45]: 0.125 µg/mL (≈ 0.187 µM)
- MIC90 [46]: 4 µg/mL (≈ 5.98 µM)
- MIC90 [47]: 8 µg/mL (≈ 12 µM)
- MIC90 [48]: 0.5 µg/mL (≈ 0.748 µM)
- MIC90 [49]: 1 µg/mL (≈ 1.5 µM)
- MIC90 [50]: 1 µg/mL (≈ 1.5 µM)
- MIC90 [51]: 0.25 µg/mL (≈ 0.374 µM)
Structure (SMILES): C[C@H]1[C@H](NC(=O)/C(=N\OC(C)(C)C(=O)O)c2csc(N)n2)C(=O)N1C(=O)NS(=O)(=O)n1nc(-c2cc(=O)c(O)c[nH]2)n(C)c1=O
